Test results published in paper PMC8533206 (Antioxidants, 2021).

Columns and labels:
[1] = target: T1, Human recombinant MAO-B (hMAO-B) (Homo sapiens, UniProt P27338); experiment: MAO-B inhibition assay (Amplex Red fluorescence, benzylamine substrate); assay type: biochemical; conditions: single dose 10 µM
T1 construct: purchased Sigma-Aldrich; host or cells: insect cells
T1 sequence (P27338 1-520): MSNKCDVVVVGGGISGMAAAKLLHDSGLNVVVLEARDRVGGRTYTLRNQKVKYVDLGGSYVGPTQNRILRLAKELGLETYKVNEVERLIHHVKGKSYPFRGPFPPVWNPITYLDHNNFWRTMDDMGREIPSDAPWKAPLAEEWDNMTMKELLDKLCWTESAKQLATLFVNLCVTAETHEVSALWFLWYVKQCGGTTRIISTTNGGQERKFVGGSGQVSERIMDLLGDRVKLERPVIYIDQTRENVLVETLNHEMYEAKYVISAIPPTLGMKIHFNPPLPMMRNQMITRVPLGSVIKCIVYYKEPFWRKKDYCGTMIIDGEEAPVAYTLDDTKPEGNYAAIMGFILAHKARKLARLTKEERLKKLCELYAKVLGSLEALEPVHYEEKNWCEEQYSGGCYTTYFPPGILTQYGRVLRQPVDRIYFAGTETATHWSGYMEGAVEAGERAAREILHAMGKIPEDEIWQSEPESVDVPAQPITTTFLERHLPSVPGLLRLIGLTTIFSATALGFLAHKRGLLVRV
Method: The biological evaluation of the tested compounds over both MAO-A and MAO-B was performed following the previously reported method. The MAO activity was measured in relative fluorescence units (RFU) evoked by peroxidase-catalyzed oxidation of Amplex Red® to resorufin, in which H2O2 generated by MAO reaction was used as the electron donor. Human recombinant MAO-A (hMAO-A) and MAO-B (hMAO-B) enzymes expressed in insect cells were obtained from Sigma-Aldrich. The 2 μL of test compound in DMSO (final concentration: 1–10 μM) was treated with 98 μL of hMAO enzyme solution in 50 mM sodium phosphate buffer (pH 7.4, final protein amounts: ~1.25 μg protein/well for MAO-A and ~2.5 μg protein/well for MAO-B) on 96-well black plate and incubated for 15 min at 37 °C. Then, 100 μL of reaction working solution which is a mixed solution of 400 μM Amplex Red® (Cayman, final concentration: 200 μM), 2 U/mL horseradish peroxidase (Sigma-Aldrich, final concentration: 1 U/mL) and 2 mM substrate (p-tyramine for MAO-A, benzylamine for MAO-B, Sigma-Aldrich, final concentration: 1 mM) in 50 mM sodium phosphate buffer (pH 7.4) were added and incubated for 20 min at 37 °C in the dark. The fluorescent intensity was quantified using a microplate reader (SpectraMax®i3, Molecular Device) with an excitation at 545 nm and an emission at 590 nm. The 50% inhibitory concentrations (IC50) of compounds were determined as the mean ± S.E.M. in triplicate from the dose-response inhibition curves using SigmaPlot® 13.0 (Systat Software Inc., San Jose, CA, USA).

[2] = tested on: MAO-B; conditions: single dose 10 μM, previous study; cited from earlier work

Row | Structure (SMILES) | inhibition at 10 µM [1] [%] | melting point [°C] | % MAO-B Inhibition [2] [%]
1 | CCNC(=O)Nc1ccc2c(ccn2C(=O)c2cccc(F)c2)c1 [Compound 4a, 1-Ethyl-3-(1-(3-fluorobenzoyl)-1H-indol-5-yl)urea] | 46.2 ± 1.1 |  | 
2 | CCOC(=O)CNC(=O)Nc1ccc2c(ccn2C(=O)c2cccc(F)c2)c1 [Compound 4b, Ethyl ((1-(3-fluorobenzoyl)-1H-indol-5-yl)carbamoyl)glycinate] | 9.9 ± 1.5 | 203.3 to 204.3 | 
3 | O=C(NCCCl)Nc1ccc2c(ccn2C(=O)c2cccc(F)c2)c1 [Compound 4c, 1-(2-Chloroethyl)-3-(1-(3-fluorobenzoyl)-1H-indol-5-yl)urea] | 26.6 ± 0.6 | 191.3 to 192.3 | 
4 | O=C(Nc1ccc2c(ccn2C(=O)c2cccc(F)c2)c1)NC1CCCCC1 [Compound 4d, 1-Cyclohexyl-3-(1-(3-fluorobenzoyl)-1H-indol-5-yl)urea] | 44 ± 0.8 | 222.7 to 223.7 | 
5 | O=C(Nc1ccc([N+](=O)[O-])cc1)Nc1ccc2c(ccn2C(=O)c2cccc(F)c2)c1 [Compound 4e, 1-(1-(3-Fluorobenzoyl)-1H-indol-5-yl)-3-(4-nitrophenyl)urea] | 47.9 ± 1.6 | 249.1 to 250.1 | 
6 | COc1ccc(NC(=O)Nc2ccc3c(ccn3C(=O)c3cccc(F)c3)c2)cc1 [Compound 4f, 1-(1-(3-Fluorobenzoyl)-1H-indol-5-yl)-3-(4-methoxyphenyl)urea] | 32.5 ± 1.4 |  | 
7 | COc1cc(NC(=O)Nc2ccc3c(ccn3C(=O)c3cccc(F)c3)c2)cc(OC)c1 [Compound 4g, 1-(3,5-Dimethoxyphenyl)-3-(1-(3-fluorobenzoyl)-1H-indol-5-yl)urea] | 55.7 ± 0.2 | 235.6 to 236.6 | 
8 | O=C(Nc1cc(Cl)cc(Cl)c1)Nc1ccc2c(ccn2C(=O)c2cccc(F)c2)c1 [Compound 4h, 1-(3,5-Dichlorophenyl)-3-(1-(3-fluorobenzoyl)-1H-indol-5-yl)urea] | 38.6 ± 1.6 |  | 
9 | O=C(Nc1ccc(F)cc1)Nc1ccc2c(ccn2C(=O)c2cccc(F)c2)c1 [Compound 4i, 1-(1-(3-Fluorobenzoyl)-1H-indol-5-yl)-3-(4-fluorophenyl)urea] | 37 ± 0.9 | 264.3 to 265.3 | 
10 | O=C(Nc1ccc(Cl)c(Cl)c1)Nc1ccc2c(ccn2C(=O)c2cccc(F)c2)c1 [Compound 4j, 1-(3,4-Dichlorophenyl)-3-(1-(3-fluorobenzoyl)-1H-indol-5-yl)urea] | 53.5 ± 0.3 |  | 
11 | O=C(Nc1ccc(Cl)c(C(F)(F)F)c1)Nc1ccc2c(ccn2C(=O)c2cccc(F)c2)c1 [Compound 4k, 1-(4-Chloro-3-(trifluoromethyl)phenyl)-3-(1-(3-fluorobenzoyl)-1H-indol-5-yl)urea] | 42.1 ± 1.7 | 210.9 to 211.9 | 
12 | O=C(NCCc1ccc(F)cc1)Nc1ccc2c(ccn2C(=O)c2cccc(F)c2)c1 [Compound 4l, 1-(1-(3-Fluorobenzoyl)-1H-indol-5-yl)-3-(4-fluorophenethyl)urea] | 42 ± 0.6 | 231.5 to 232.5 | 
13 | O=C(Nc1ccc(Oc2ccccc2)cc1)Nc1ccc2c(ccn2C(=O)c2cccc(F)c2)c1 [Compound 4m, 1-(1-(3-Fluorobenzoyl)-1H-indol-5-yl)-3-(4-phenoxyphenyl)urea] | 38.1 ± 0.5 | 235.2 to 236.2 | 
14 | O=C(Nc1ccc(N2CCOCC2)cc1)Nc1ccc2c(ccn2C(=O)c2cccc(F)c2)c1 [Compound 4n, 1-(1-(3-Fluorobenzoyl)-1H-indol-5-yl)-3-(4-morpholinophenyl)urea] | 32.9 ± 0.3 |  | 
15 | O=C(c1cccc(F)c1)n1ccc2cc(NC(=S)NCCCl)ccc21 [Compound 5b, 1-(2-Chloroethyl)-3-(1-(3-fluorobenzoyl)-1H-indol-5-yl)thiourea] | 45.6 ± 1.2 | 221.5 to 222.5 | 
16 | Cn1ccc2cc(NC(=O)c3cnccn3)ccc21 [VII] |  |  | 49.68

More lines, main results first:

Row | inhibition at 10 µM [1] [%] | melting point [°C] | Structure (SMILES) | % MAO-B Inhibition [2] [%]
17 | 15.5 ± 1.1 | 199.4 to 200.4 | CCOC(=O)NC(=S)Nc1ccc2c(ccn2C(=O)c2cccc(F)c2)c1 [Compound 5a, 1-Ethoxycarbonyl-3-(1-(3-fluorobenzoyl)-1H-indol-5-yl)thiourea] | 
18 | 43.9 ± 1.1 | 192.7 to 193.7 | O=C(c1cccc(F)c1)n1ccc2cc(NC(=S)Nc3ccc(N4CCOCC4)cc3)ccc21 [Compound 5c, 1-(1-(3-Fluorobenzoyl)-1H-indol-5-yl)-3-(4-morpholinophenyl)thiourea] | 
19 | 46.8 ± 0.2 |  | O=C(c1cccc(F)c1)n1ccc2cc(NC(=S)NCCN3CCOCC3)ccc21 [Compound 5d, 1-(1-(3-Fluorobenzoyl)-1H-indol-5-yl)-3-(2-morpholinoethyl)thiourea] | 
20 | 44.7 ± 0.5 | 187.1 to 188.1 | O=C(c1cccc(F)c1)n1ccc2cc(NC(=S)NCCN3CCCCC3)ccc21 [Compound 5e, 1-(1-(3-Fluorobenzoyl)-1H-indol-5-yl)-3-(2-(piperidin-1-yl)ethyl)thiourea] | 
21 | 34.1 ± 0.7 | 152.6 to 153.6 | O=C(c1cccc(F)c1)n1ccc2cc(NC(=S)NCc3ccco3)ccc21 [Compound 5f, 1-(1-(3-Fluorobenzoyl)-1H-indol-5-yl)-3-(furan-2-ylmethyl)thiourea] | 
22 | 30.6 ± 0.9 |  | O=C(c1cccc(F)c1)n1ccc2cc(NC(=S)Nc3ccc([N+](=O)[O-])cc3)ccc21 [Compound 5g, 1-(1-(3-Fluorobenzoyl)-1H-indol-5-yl)-3-(4-nitrophenyl)thiourea] | 
23 | 32.5 ± 0.5 | 171.1 to 172.1 | COc1cc(NC(=S)Nc2ccc3c(ccn3C(=O)c3cccc(F)c3)c2)cc(OC)c1 [Compound 5h, 1-(3,5-Dimethoxyphenyl)-3-(1-(3-fluorobenzoyl)-1H-indol-5-yl)thiourea] | 
24 | 59.8 ± 0.4 | 193.4 to 194.4 | O=C(c1cccc(F)c1)n1ccc2cc(NC(=S)Nc3ccc(Cl)c(Cl)c3)ccc21 [Compound 5i, 1-(3,4-Dichlorophenyl)-3-(1-(3-fluorobenzoyl)-1H-indol-5-yl)thiourea] | 
25 | 51.1 ± 0.4 | 144.9 to 145.9 | O=C(c1cccc(F)c1)n1ccc2cc(NC(=S)Nc3cccnc3)ccc21 [Compound 5j, 1-(1-(3-Fluorobenzoyl)-1H-indol-5-yl)-3-(pyridin-3-yl)thiourea] | 
26 | 26.8 ± 1.3 | 278.1 to 279.1 | O=C(Nc1ccc2c(ccn2C(=O)c2cccc(F)c2)c1)c1ccnc([N+](=O)[O-])c1 [Compound 6a, N-(1-(3-Fluorobenzoyl)-1H-indol-5-yl)-2-nitroisonicotinamide] | 
27 | 33.8 ± 2.3 | 136.5 to 137.5 | CCOC(=O)Nc1ccc2c(ccn2C(=O)c2cccc(F)c2)c1 [Compound 6b, Ethyl (1-(3-fluorobenzoyl)-1H-indol-5-yl)carbamate] | 
28 | 35.5 ± 1.5 |  | CCOC(=O)C(=O)Nc1ccc2c(ccn2C(=O)c2cccc(F)c2)c1 [Compound 6c, Ethyl 2-((1-(3-fluorobenzoyl)-1H-indol-5-yl)amino)-2-oxoacetate] | 
29 | 53 ± 0.3 | 237.6 to 238.6 | O=C(Nc1ccc2c(ccn2C(=O)c2cccc(F)c2)c1)c1ccc(Cl)c(Cl)c1 [Compound 6d, 3,4-Dichloro-N-(1-(3-fluorobenzoyl)-1H-indol-5-yl)benzamide] | 
30 | 59.6 ± 0.3 | 226.6 to 227.6 | O=C(Nc1ccc2c(ccn2C(=O)c2cccc(F)c2)c1)c1coc2ccccc2c1=O [Compound 6e, N-(1-(3-fluorobenzoyl)-1H-indol-5-yl)-4-oxo-4H-chromene-3-carboxamide] | 
31 | 49.8 ± 0.3 | 103.4 to 104.4 | COC(=O)c1ccc2c(ccn2C(=O)c2cccc(F)c2)c1 [Compound 7a, Methyl 1-(3-fluorobenzoyl)-1H-indole-5-carboxylate] | 
32 | 34.2 ± 0.2 |  | O=C(Nc1ccc(F)c(Cl)c1)c1ccc2[nH]ccc2c1 [Compound 8c, N-(3-chloro-4-fluorophenyl)-1H-indole-5-carboxamide] | 
33 | 15.3 ± 0.8 | 131.6 to 132.6 | O=C(NCc1ccc2c(c1)OCO2)c1ccc2[nH]ccc2c1 [Compound 8d, N-(benzo[d][1,3]dioxol-5-ylmethyl)-1H-indole-5-carboxamide] | 
